The source of these data is ChEMBL document CHEMBL4354824, “4-Aryl-1-oxa-4,9-diazaspiro[5.5]undecane Derivatives as Dual μ-Opioid Receptor Agonists and σ1 Receptor Antagonists for the Treatment of Pain” (J Med Chem, 2020).

In data set [1] the target is T1, Mu-type opioid receptor (Homo sapiens, UniProt P35372). Description: biochemical.
Description: Displacement of [3H]-DAMGO from human MOR expressed in CHOK1 cell membranes incubated for 60 mins by liquid scintillation counting method
Data set [2] has as its target T2, Alpha-1A adrenergic receptor (Homo sapiens) (UniProt P35348).
T2 sequence (whole entry): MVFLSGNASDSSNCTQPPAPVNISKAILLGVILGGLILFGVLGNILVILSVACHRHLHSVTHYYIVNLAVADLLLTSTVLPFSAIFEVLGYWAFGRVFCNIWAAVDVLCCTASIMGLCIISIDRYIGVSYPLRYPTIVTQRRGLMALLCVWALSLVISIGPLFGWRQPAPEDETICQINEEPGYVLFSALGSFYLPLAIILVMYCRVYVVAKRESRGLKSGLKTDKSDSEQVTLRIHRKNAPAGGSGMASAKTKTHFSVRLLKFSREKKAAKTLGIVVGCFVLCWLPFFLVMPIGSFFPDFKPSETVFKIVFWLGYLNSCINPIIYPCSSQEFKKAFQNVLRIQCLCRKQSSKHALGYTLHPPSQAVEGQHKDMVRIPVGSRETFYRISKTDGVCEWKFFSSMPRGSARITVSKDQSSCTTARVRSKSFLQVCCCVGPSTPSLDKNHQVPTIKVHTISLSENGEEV
Description: Displacement of [3H]-prazosin from human alpha1A adrenoreceptor expressed in enriched membranes at 1 uM incubated for 90 mins by liquid scintillation counting method relative to control. In kind it is cell membranes.

Data set [3] has as its target Sigma non-opioid intracellular receptor 1 (Homo sapiens, UniProt Q99720). Description: Displacement of [3H]-(+)-pentazocine from human sigma-1 receptor expressed in HEK293 membranes incubated for 120 mins by liquid scintillation counting method.
Data set [4] addresses T1, Mu-type opioid receptor. Description: Agonist activity at human MOR expressed in CHOK1 cells assessed as […] of cAMP accumulation at 1 uM incubated for 45 mins by HTRF assay. In kind it is functional, cell-based.
Data set [5] has as its target T1, Mu-type opioid receptor. Put plainly: Agonist activity at human MOR expressed in CHOK1 cells assessed as […] of cAMP accumulation incubated for 45 mins by HTRF assay. Type of data set: functional, cell-based.
Data set [6] addresses T3, Cytochrome P450 1A2 (Homo sapiens, UniProt P05177).
T3 sequence (P05177 whole entry): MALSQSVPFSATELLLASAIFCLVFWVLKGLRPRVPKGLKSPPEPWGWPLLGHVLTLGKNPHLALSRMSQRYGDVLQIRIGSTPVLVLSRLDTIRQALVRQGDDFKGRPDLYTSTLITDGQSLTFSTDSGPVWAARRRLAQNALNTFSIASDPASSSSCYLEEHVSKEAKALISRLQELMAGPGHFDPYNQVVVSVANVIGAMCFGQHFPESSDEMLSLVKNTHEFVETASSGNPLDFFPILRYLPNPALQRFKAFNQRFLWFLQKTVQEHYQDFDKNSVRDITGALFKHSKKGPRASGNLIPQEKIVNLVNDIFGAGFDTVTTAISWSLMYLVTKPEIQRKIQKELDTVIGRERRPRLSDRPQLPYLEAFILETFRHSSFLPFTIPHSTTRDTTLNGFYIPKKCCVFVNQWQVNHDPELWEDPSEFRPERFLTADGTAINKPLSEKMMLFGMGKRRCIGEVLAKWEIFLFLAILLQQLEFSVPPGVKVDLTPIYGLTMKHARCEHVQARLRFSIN
Description: Inhibition of recombinant human CYP1A2 using fluorometric substrate. Type of data set: ADME. The settings on record: recombinant enzyme.

Data set [7] deals with hERG (KCNH2) (Homo sapiens, UniProt Q12809). Put plainly: Inhibition of human ERG expressed in CHOK1 cells assessed as reduction in channel current at 10 uM at -80 mV holding potential by whole cell patch clamp assay relative to control. In kind it is cell-based. The settings on record: CHO-K1 cells expressing human ERG.
hERG (KCNH2), sequence (Q12809 whole entry): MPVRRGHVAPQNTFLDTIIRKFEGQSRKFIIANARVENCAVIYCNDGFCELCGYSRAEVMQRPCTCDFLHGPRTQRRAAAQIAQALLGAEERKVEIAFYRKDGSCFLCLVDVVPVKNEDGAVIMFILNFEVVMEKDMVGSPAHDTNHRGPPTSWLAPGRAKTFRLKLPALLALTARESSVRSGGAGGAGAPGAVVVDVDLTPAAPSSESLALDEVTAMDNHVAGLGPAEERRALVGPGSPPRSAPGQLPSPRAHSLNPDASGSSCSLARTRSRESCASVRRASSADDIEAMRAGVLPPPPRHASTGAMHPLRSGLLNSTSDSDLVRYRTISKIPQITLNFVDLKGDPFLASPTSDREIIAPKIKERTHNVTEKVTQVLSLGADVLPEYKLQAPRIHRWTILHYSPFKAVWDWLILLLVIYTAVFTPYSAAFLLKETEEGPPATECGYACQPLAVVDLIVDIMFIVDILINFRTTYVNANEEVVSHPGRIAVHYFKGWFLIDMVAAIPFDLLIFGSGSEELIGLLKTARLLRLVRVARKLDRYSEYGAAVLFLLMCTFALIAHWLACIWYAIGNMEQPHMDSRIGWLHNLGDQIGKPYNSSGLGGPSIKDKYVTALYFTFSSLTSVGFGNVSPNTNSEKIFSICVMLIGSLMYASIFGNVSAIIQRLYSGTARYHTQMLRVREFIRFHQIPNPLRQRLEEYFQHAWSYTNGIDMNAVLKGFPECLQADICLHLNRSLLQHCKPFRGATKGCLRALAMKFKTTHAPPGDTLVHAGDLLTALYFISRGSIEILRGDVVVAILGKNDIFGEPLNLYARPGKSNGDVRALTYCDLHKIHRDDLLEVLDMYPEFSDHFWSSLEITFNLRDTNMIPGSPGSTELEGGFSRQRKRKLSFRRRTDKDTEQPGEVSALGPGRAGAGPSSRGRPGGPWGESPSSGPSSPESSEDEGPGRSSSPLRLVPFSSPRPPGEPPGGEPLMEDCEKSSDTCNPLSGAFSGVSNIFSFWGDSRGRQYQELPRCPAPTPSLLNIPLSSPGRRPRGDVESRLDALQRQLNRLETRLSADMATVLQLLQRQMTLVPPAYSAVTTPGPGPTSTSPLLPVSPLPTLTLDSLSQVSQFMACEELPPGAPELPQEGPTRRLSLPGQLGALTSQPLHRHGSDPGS
Data set [8] in a line: Lipophilicity, log Pof the compound. Type of data set: physicochemical. The settings on record: octanol/water.
Data set [9] concerns the target Cytochrome P450 2E1 (Homo sapiens, UniProt P05181). Put plainly: Inhibition of recombinant human CYP2E1 using fluorometric substrate. Type of data set: ADME. The settings on record: recombinant enzyme.
Data set [10] has as its target Cytochrome P450 2D6 (Homo sapiens, UniProt P10635). Description: Inhibition of recombinant human CYP2D6 using fluorometric substrate. Type of data set: ADME. The settings on record: recombinant enzyme.
The target of data set [11] is T4, Alpha-1A adrenergic receptor (Homo sapiens, UniProt P35348).
T4 sequence (P35348 whole entry): T2 sequence (whole entry)
Description: Displacement of [3H]-prazosin from human alpha1A adrenoreceptor expressed in enriched membranes incubated for 90 mins by liquid scintillation counting method. Type of data set: cell membranes.

Data set [12] can be described thus: Thermodynamic solubility in pH 2 buffer. In kind it is physicochemical. The settings on record: read-out: Therm_solubility.
Data set [13] concerns Mus musculus. Put plainly: Antinociceptive activity in ip dosed mouse assessed as reduction in mechanical nociception measured after 30 mins post dose by paw pressure pain test. Type of data set: functional. The settings on record: 0.5 h.
The target of data set [14] is Cytochrome P450 3A4 (Homo sapiens, UniProt P08684). Put plainly: Inhibition of recombinant human CYP3A4 using fluorometric substrate. In kind it is ADME. The settings on record: recombinant enzyme.
The test system of data set [15] is Mus musculus. Description: Induction of constipation in mouse assessed as effect on intestinal transit at 20 mg/kg, ip dosed 30 mins before charcoal suspension dosing and measured after 30 mins. In kind it is organism-based. The settings on record: in vivo, 0.5 h.
Data set [16] has as its target Voltage-gated inwardly rectifying potassium channel KCNH2 (Homo sapiens, UniProt Q12809).
Description: Inhibition of human ERG expressed in CHOK1 cells assessed as reduction in channel current at -80 mV holding potential by whole cell patch clamp assay
The nature of data set [17]: Thermodynamic solubility in pH 7.4 buffer. Type of data set: physicochemical. The settings on record: read-out: Therm_solubility.
The target of data set [18] is Cytochrome P450 2C9 (Homo sapiens, UniProt P11712). Put plainly: Inhibition of recombinant human CYP2C9 using fluorometric substrate. In kind it is ADME. The settings on record: recombinant enzyme.
Cytochrome P450 2C9, sequence (P11712 whole entry): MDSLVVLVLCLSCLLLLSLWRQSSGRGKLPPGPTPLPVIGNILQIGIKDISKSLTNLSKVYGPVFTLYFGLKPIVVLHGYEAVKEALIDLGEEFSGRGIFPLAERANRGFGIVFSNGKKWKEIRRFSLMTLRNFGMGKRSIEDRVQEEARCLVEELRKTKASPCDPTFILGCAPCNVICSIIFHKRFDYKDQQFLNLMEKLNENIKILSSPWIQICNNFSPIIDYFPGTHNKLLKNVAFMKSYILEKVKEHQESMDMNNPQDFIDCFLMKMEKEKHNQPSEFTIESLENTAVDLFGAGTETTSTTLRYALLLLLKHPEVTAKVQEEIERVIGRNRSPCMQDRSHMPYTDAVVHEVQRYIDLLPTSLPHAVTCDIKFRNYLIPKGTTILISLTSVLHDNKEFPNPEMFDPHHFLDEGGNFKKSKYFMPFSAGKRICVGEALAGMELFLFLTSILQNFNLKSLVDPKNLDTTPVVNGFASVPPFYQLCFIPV
Data set [19] is described as follows: Basicity constant, pKa of the compound. Type of data set: physicochemical.
The nature of data set [20]: Clearance in human liver microsomes. The settings on record: read-out: CLH. Type of data set: ADME, Microsome.
The target in data set [21] is Cytochrome P450 2C19 (Homo sapiens, UniProt P33261). Description: Inhibition of recombinant human CYP2C19 using fluorometric substrate. In kind it is ADME. The settings on record: recombinant enzyme.
Cytochrome P450 2C19, sequence (P33261 whole entry): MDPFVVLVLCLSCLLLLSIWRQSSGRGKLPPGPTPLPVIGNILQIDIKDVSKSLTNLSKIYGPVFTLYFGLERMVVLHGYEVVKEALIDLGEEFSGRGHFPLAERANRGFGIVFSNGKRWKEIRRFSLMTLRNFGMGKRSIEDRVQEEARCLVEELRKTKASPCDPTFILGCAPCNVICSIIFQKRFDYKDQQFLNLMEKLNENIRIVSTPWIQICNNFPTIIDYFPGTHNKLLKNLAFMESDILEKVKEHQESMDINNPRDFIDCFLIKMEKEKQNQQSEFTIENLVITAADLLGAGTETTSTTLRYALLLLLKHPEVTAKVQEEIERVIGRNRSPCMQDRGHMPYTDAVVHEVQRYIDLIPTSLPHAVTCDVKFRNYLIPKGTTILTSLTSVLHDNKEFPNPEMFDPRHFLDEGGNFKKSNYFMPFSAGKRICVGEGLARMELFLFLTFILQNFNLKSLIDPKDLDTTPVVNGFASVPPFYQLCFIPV
Data set [22] addresses 5-hydroxytryptamine receptor 2B (Homo sapiens, UniProt P41595). Description: Inhibition of 5HT2B receptor (unknown origin).
The subject of data set [23] is Mus musculus. Put plainly: Induction of constipation in mouse assessed as effect on intestinal transit at 10 mg/kg, po dosed 30 mins before charcoal suspension dosing and measured after 30 mins. In kind it is organism-based. The settings on record: in vivo, 0.5 h.
Data set [24] has as its system Mus musculus. Put plainly: Antinociceptive activity in orally dosed mouse assessed as reduction in mechanical nociception measured after 30 mins post dose by paw pressure pain test. Type of data set: functional. The settings on record: po, 0.5 h.
Data set [25] deals with T1, Mu-type opioid receptor. Description: Agonist activity at human MOR expressed in CHOK1 cells assessed as […] of cAMP accumulation at 10 uM incubated for 45 mins by HTRF assay. In kind it is functional, cell-based.
In data set [26] the target is T1, Mu-type opioid receptor. Put plainly: Displacement of [3H]-DAMGO from human MOR expressed in CHOK1 cell membranes at 10 uM incubated for 60 mins by liquid scintillation counting method.
The target of data set [27] is T1, Mu-type opioid receptor. Put plainly: Agonist activity at human MOR expressed in CHOK1 cells assessed as […] of cAMP accumulation incubated for 45 mins by HTRF assay relative to DAMGO. Type of data set: functional, cell-based.

Structures are written as SMILES. In brackets after ≈: the same amount, converted by molar mass.

Voltage-gated inwardly rectifying potassium channel KCNH2, sequence (Q12809 whole entry): as the sequence (Q12809 whole entry) above
Sigma non-opioid intracellular receptor 1, sequence (Q99720 whole entry): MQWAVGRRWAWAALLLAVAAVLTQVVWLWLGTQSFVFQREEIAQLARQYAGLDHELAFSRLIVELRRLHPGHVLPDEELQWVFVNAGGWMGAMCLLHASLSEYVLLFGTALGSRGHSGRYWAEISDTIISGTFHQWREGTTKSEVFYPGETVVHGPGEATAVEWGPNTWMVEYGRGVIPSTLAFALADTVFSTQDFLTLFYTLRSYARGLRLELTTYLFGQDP
T1 sequence (P35372 whole entry): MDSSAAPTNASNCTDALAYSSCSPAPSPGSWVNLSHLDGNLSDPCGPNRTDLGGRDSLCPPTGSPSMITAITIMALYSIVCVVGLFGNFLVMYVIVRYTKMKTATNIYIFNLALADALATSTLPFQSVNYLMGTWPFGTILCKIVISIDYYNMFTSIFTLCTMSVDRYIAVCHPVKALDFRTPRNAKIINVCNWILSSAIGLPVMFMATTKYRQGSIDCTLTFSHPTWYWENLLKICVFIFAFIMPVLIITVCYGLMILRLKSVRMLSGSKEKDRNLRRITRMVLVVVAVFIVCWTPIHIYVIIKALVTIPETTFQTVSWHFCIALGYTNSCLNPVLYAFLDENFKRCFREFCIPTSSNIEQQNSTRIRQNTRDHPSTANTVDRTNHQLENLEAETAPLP
Cytochrome P450 2E1, sequence (P05181 whole entry): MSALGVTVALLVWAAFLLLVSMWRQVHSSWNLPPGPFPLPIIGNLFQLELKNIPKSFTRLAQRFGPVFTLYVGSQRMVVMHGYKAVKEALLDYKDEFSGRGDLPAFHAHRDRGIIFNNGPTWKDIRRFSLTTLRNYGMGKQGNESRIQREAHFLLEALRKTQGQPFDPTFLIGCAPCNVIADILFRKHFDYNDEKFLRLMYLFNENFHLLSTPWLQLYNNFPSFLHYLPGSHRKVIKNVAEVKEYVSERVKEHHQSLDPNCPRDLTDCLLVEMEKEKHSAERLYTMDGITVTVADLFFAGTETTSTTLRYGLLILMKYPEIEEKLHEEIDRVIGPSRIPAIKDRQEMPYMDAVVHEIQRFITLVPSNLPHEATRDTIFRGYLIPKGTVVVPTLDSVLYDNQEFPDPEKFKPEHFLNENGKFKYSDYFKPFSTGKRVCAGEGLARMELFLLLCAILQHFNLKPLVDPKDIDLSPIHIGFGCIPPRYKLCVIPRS
Cytochrome P450 2D6, sequence (P10635 whole entry): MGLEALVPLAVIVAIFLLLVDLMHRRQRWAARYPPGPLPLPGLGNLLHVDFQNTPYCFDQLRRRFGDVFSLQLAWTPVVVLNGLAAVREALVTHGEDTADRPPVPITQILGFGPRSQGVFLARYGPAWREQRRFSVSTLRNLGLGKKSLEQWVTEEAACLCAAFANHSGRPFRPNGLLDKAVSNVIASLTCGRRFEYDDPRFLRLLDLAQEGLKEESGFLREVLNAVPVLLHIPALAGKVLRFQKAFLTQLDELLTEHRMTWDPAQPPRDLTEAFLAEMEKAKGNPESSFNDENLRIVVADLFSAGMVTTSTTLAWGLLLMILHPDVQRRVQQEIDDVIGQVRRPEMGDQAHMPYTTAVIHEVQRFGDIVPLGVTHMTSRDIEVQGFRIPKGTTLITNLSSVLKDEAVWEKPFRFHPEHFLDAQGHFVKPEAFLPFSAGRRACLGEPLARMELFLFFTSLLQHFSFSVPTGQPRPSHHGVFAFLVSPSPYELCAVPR

In the case of `CC1OC2(CCN(CCc3ccccc3)CC2)CN(c2ccccc2O)C1=O` (stereo not drawn), the Ki in data set [1] stood at 535 nM; in data set [3] it was 51 nM. This molecule also registered an inhibition in [2] of 66%. For the same molecule, the Activity in data set [4] is below 50%. In addition, in data set [5], the EC50 is above 1000 nM.

On to `O=C1N(c2cccnc2C(F)(F)F)CC2(CCN(CCc3ccccc3F)CC2)OC12CC2`, for which the “inhibition (INH)” value in data set [6], in [9], in [10], in data set [14], in data set [18] and in data set [21] was below 50% each time. The inhibition at 10 µM in [7] is below 50%. In data set [8], the logP stood at 3.41. The Ki in data set [11] was determined as 470 nM; in [22] it was 754 nM. Moreover, the solubility thermodynamic in data set [12] came to 2630 µg/mL (≈ 5.67 mM); in [17] it was 160 µg/mL (≈ 0.345 mM). In addition, the ED50 in data set [13] came to 15 mg/kg. In data set [15], the Activity result is “Non-Toxic”. This molecule also registered an IC50 in [16] above 10000 nM. In data set [19], the pKa was 7.82. Further, the microsomal CLint in data set [20] is 20 µL/min/mg.

Consider `CC1OC2(CCN(CCc3ccccc3)CC2)CN(c2cccc(O)c2)C1=O` (stereo not drawn), for which the Ki in [1] came out at 727 nM; in data set [3], 55 nM. In data set [2], this molecule displayed an inhibition of 67%. The Activity in data set [4] was below 50%. The EC50 in data set [5] is above 1000 nM.

On to `COc1ccc2c3c1O[C@H]1C(=O)CC[C@@]4(O)[C@@H](C2)N(C)CC[C@]314` [OXYCODONE], for which the Activity entry in [23] is recorded as “Toxic”. In addition, the ED50 in data set [24] is 4.3 mg/kg.

On to `CN(C)C(=O)CC1OC2(CCN(CCc3ccccc3)CC2)CN(c2ccccc2)C1=O` (stereo not drawn), for which the Ki is 636 nM in data set [1] and 275 nM in data set [3]. Further, the Activity in [4] is below 50%. For the same molecule, the EC50 in data set [5] is above 1000 nM.

`O=C(CCCN1CCC(O)(c2ccc(Cl)cc2)CC1)c1ccc(F)cc1`: in [25], the Activity is below 50%. Moreover, the inhibition in [26] is below 50%.

Regarding `CC1OC2(CCN(CCc3cccc(F)c3)CC2)CN(c2ccccc2)C1=O` (stereo not drawn), the Emax in data set [27] is 94%. Moreover, the Ki in data set [1] is 10 nM; in data set [3], 8 nM. The molecule also gave an inhibition in data set [2] of 74%. Also, the midpoint of inhibition in data set [16], the IC50, lay at 600 nM. Moreover, in data set [5], the EC50 is 13 nM.

With `C[C@H]1OC2(CCN(CCc3ccccc3F)CC2)CN(c2cnccc2C(F)(F)F)C1=O`, the Emax in data set [27] stood at 100%. For the same molecule, the Ki in data set [1] amounted to 11 nM; in data set [3] it was 61 nM. In [2], the inhibition turned out to be 54%. Half-maximal inhibition in data set [16] (IC50) required 6300 nM. Moreover, in data set [5], the EC50 came out at 26 nM.

As for `COc1cccc(N2CC3(CCN(CCc4ccccc4)CC3)OC(C)C2=O)c1` (stereo not drawn), in data set [27], the Emax amounted to 88%. Besides, the figures for the Ki in data set [1] and in [3] were 126 nM and 15 nM, respectively. The same molecule yielded an inhibition in data set [2] of 82%. The same molecule displayed an IC50 in data set [16] of 1000 nM. Moreover, the EC50 in data set [5] was 304 nM.

On to `CC1OC2(CCN(CCc3ccccc3)CC2)CN(c2cnccc2C(F)(F)F)C1=O` (stereo not drawn), for which the Emax in data set [27] is 96%. The Ki in data set [1] worked out at 28 nM; in data set [3], 63 nM. This molecule had an inhibition in data set [2] of 58%. For the same molecule, in data set [16], inhibition was half-maximal at 3300 nM (IC50). Further, the EC50 in data set [5] was found to be 25 nM.

Turning to `O=C1OC2(CCN(CCc3ccccc3)CC2)CN1c1ccccc1`, the Ki in data set [1] amounted to 401 nM; in data set [3] it was 55 nM. For the same molecule, in [4], the Activity is below 50%. In addition, the EC50 in [5] was above 1000 nM.
